Assay results published in patent US8598367B2, “Nitrogen-containing heterocyclic compound and pest control agent” (Nippon Soda Co., Ltd., priority 2008, dated 2013).

Tests used:
Aphis gossypii = assay: Test case 1 Efficacy against Aphis gossypii; assay type: in vivo; conditions: 125 ppm emulsion (Formulation Example 2) applied to cucumbers parasitized with offspring; 25° C., humidity 65%; after five days
Source text: Test case 1 Efficacy against Aphis gossypii
The test was repeated twice.

[1] = test system: Tetranychus urticae with organophosphate resistance; assay: Test Case 2 Efficacy Against Tetranychus urticae; conditions: 125 ppm wettable powder (Formulation Example 1) applied to bean leaf with female adults; 25° C., humidity 65%; after three days

| SMILES | insect mortality rate (Aphis gossypii) | insect mortality rate [1] |
| --- | --- | --- |
| Cc1nc(N(C)C)nc(OC(=O)N(C)C)c1C [pirimicarb] | 9% |  |
| Cc1cc(Cl)ccc1N=CN(C)C [chlordimeform] |  | 9% |
